Data on 26 compounds can be found in patent US20220073536A1 (Rigel Pharmaceuticals, Inc., priority 2003, published 2022).

In test [1] the test system is cultured human mast cells (CHMC). As to the kind of experiment: CHMC low cell density ionomycin activation: tryptase assay. In kind it is cell-based. The following applies: read-out: LD Tryptase, CHMC, Iono, 3 pt.
The test system is the same in test [2]. Kind of test: CHMC low cell density IgE activation: tryptase assay. The following applies: IgE activation. Format: cell-based. Put shortly:
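Tryptase release was read from supernatant with a fluorogenic substrate (30 min, room temperature) after anti-IgE challenge of cultured human mast cells (1000–1500 cells/well, low density) for 30 minutes at 37° C.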

[3] abbreviates: Homo sapiens, Mast cell, low cell density CHMC, tryptase release, 3 pt.
Where [4] appears, read: Homo sapiens, Mast cell, low cell density CHMC, tryptase release, 3 pt, read-out: LD Tryptase, CHMC, IgE, 3 pt.
The mark [5] stands for this setting: Homo sapiens, Mast cell, low cell density CHMC, tryptase release, 8 pt, read-out: LD Tryptase, CHMC, IgE, 8 pt.
Setting [6] is: Homo sapiens, Mast cell, low cell density CHMC, tryptase, 3 pt.
Where [7] appears, read: Homo sapiens, Mast cell, low cell density CHMC, tryptase, 3 pt, read-out: LD Tryptase, CHMC, IgE, 3 pt.
Where [8] appears, read: low cell density CHMC, tryptase release, 3 point.
[9] abbreviates: low cell density CHMC, tryptase release, 3 point, read-out: LD Tryptase, CHMC, IgE, 3 pt.
Where [10] appears, read: low cell density CHMC, tryptase release, 8 point, read-out: LD Tryptase, CHMC, IgE, 8 pt.
Where [11] appears, read: Homo sapiens, Mast cell, low cell density CHMC, tryptase release, 3 point.
The mark [12] stands for this setting: Homo sapiens, Mast cell, low cell density CHMC, tryptase release, 3 point, read-out: LD Tryptase, CHMC, IgE, 3 pt.
The mark [13] stands for this setting: Homo sapiens, Mast cell, low cell density CHMC, tryptase, 8 pt, read-out: LD Tryptase, CHMC, IgE, 8 pt.
Setting [14] is: low cell density, 3 pt, read-out: LD Tryptase, CHMC, IgE, 3 pt.
The mark [15] stands for this setting: low cell density, 8 pt, read-out: LD Tryptase, CHMC, IgE, 8 pt.
[16] abbreviates: low cell density CHMC, tryptase, 3 pt.
Setting [17] is: low cell density CHMC, tryptase, 3 pt, read-out: LD Tryptase, CHMC, IgE, 3 pt.
The mark [18] stands for this setting: Homo sapiens, Mast cell, low cell density, 3 pt.
Where [19] appears, read: Homo sapiens, Mast cell, low cell density, 3 pt, read-out: LD Tryptase, CHMC, IgE, 3 pt.
[20] abbreviates: Homo sapiens, Mast cell, low cell density, 8 pt, read-out: LD Tryptase, CHMC, IgE, 8 pt.

Structures are written as SMILES. Where a name gives a salt, the structure may show the parent alone.

In the case of `COc1ccc(Nc2nc(Nc3ccc4c(cnn4CCCOC(C)=O)c3)ncc2F)cc1Cl` [Compound 788, N2-[1-(3-Acetyloxypropyl)indazol-5-yl]-N4-(3-chloro-4-methoxyphenyl)-5-fluoro-2,4-pyrimidinediamine], the IC50 in test [1] (setting [3]) is greater than 10 µM; in test [2] (setting [4]), less than 10 µM; in test [2] (setting [5]), less than 10 µM.
As for `COc1cc(OC)cc(N(C)c2nc(Nc3ccc(Cl)c(OC)c3)ncc2F)c1` [Compound 405], the IC50 in test [1] (setting [6]) was greater than 10 µM; in test [2] (setting [7]) it was less than 10 µM.
With `O=C1COc2ccc(Nc3nc(Nc4ccc(-c5ncco5)cc4)ncc3F)cc2N1` [Compound 239], the IC50 is greater than 10 µM in test [1] (setting [3]), less than 10 µM in test [2] (setting [4]) and less than 10 µM in test [2] (setting [5]).
`CNC(=O)COc1c(C)cc(Nc2ncc(F)c(N(C)c3cc(OC)cc(OC)c3)n2)cc1C` [Compound 638, N2-[3,5-Dimethyl-4-(N-methylamino)carbonylmethyleneoxyphenyl]-N4-(3,5-dimethoxyphenyl)-5-fluoro-N4-methyl-2,4-pyrimidinediamine]: the IC50 in test [1] (setting [8]), in test [2] (setting [9]) and in test [2] (setting [10]) was less than 10 µM in each case.
Regarding `COc1ccc(Nc2nc(Nc3ccc(N4CCN(C(C)=O)CC4)cc3)ncc2F)cc1OC` [Compound 430, N2-[4-(4-Acetylpiperazino)phenyl]-N4-(3,4-dimethoxyphenyl)-5-fluoro-2,4-pyrimidinediamine], the IC50 in test [1] (setting [6]) is greater than 10 µM; in test [2] (setting [7]), less than 10 µM.
Regarding `COC(=O)c1cc2cc(Nc3ncc(F)c(N(C)c4ccc(OC)c(Cl)c4)n3)ccc2o1` [Compound 585, N4-(3-Chloro-4-methoxyphenyl)-5-fluoro-N2-(2-methoxycarbonylbenzofuran-5-yl)-N4-methyl-2,4-pyrimidinediamine], the IC50 in test [1] (setting [11]) and in test [2] (setting [12]) was greater than 10 µM throughout.
Take `COc1ccc(Nc2nc(Nc3ccc(-c4cnco4)cc3)ncc2F)cc1OC` [Compound 422, N4-(3,4-Dimethoxyphenyl)-5-fluoro-N2-[4-(oxazol-5-yl)phenyl]-2,4-pyrimidinediamine]: the IC50 in test [1] (setting [6]) was greater than 10 µM; in test [2] (setting [7]) it was less than 10 µM; in test [2] (setting [13]), less than 10 µM.
With `Cc1cc(C)cc(Nc2ncc(F)c(Nc3ccc4c(c3)N(C)C(=O)C(C)(C)O4)n2)c1` [Compound 396], the IC50 in test [1] (setting [6]), in test [2] (setting [7]) and in test [2] (setting [13]) was less than 10 µM in each case.
Take `COc1cc(Nc2ncc(F)c(N(C)c3ccc(OC)c(OC)c3)n2)cc(OC)c1` [Compound 434]: the values for the IC50 in test [1] (setting [6]) and in test [2] (setting [7]) were greater than 10 µM and less than 10 µM, respectively.
For `CN1C(=O)C(C)(C)Oc2ccc(N(C)c3nc(Nc4cccc(-c5cocn5)c4)ncc3F)cc21` [Compound 1030], the IC50 in test [1] (Homo sapiens, Mast cell, low cell density CHMC, tryptase readout, 3 pt) was less than 10 µM; in test [2] (Homo sapiens, Mast cell, low cell density CHMC, tryptase readout, 3 pt, read-out: LD Tryptase, CHMC, IgE, 3 pt) it was less than 10 µM.
Turning to `Cc1cc(Nc2ncc(F)c(Nc3ccc4c(n3)NC(=O)C(C)(C)O4)n2)cc(Cl)c1O` [Compound 996, N2-(3-Chloro-4-hydroxy-5-methylphenyl)-N4-(2,2-dimethyl-3-oxo-4H-5-pyrid[1,4]oxazin-6-yl)-5-fluoro-2,4-pyrimidinediamine], the IC50 is greater than 10 µM in test [1] (low cell density, 3 pt); less than 10 µM in test [2] (setting [14]); less than 10 µM in test [2] (setting [15]).
Take `CC(=O)N1CCN(c2cccc(Nc3ncc(F)c(N[C@H]4CCN(Cc5ccccc5)C4)n3)c2)CC1` [Compound 1185, (S)-N2-[3-(4-Acetylpiperazino)phenyl]-N4-(benzylpyrrolidin-3-yl)-5-fluoro-2,4-pyrimidinediamine]: the IC50 is greater than 10 µM in test [1] (setting [16]) and less than 10 µM in test [2] (setting [17]).
For `CNS(=O)(=O)c1ccc(Nc2ncc(F)c(Nc3ccc4c(c3)OCCO4)n2)cc1OC` [Compound 493, N4-(3,4-Ethylenedioxyphenyl)-5-fluoro-N2-[4-(N-methylamino)sulfonyl-3-methoxyphenyl]-2,4-pyrimidinediamine], the IC50 in test [1] (setting [18]) was greater than 10 µM; in test [2] (setting [19]), less than 10 µM; in test [2] (setting [20]), less than 10 µM.
Take `COc1ccc(Nc2ncc(F)c(Nc3ccc4c(c3)NC(=O)CS4)n2)cc1Cl` [Compound 257]: the IC50 in test [1] (setting [3]) is greater than 10 µM; in test [2] (setting [4]), less than 10 µM; in test [2] (setting [5]) it was less than 10 µM.
With `CC(=O)N1CCN(c2cccc(Nc3ncc(F)c(N(C)C4CCC4)n3)c2)CC1` [Compound 1150, N2-[3-(4-Acetylpiperazino)phenyl]-N4-cyclobutyl-5-fluoro-N4-methyl-2,4-pyrimidinediamine], the IC50 was greater than 10 µM in test [1] (setting [6]) and less than 10 µM in test [2] (setting [7]).
Take `CNS(=O)(=O)c1ccc(Nc2ncc(F)c(Nc3cccc(O)c3)n2)cc1OC` [Compound 499, 5-Fluoro-N4-(3-hydroxyphenyl)-N2-[3-methoxyphenyl-4-(N-methylamino)sulfonyl]-2,4-pyrimidinediamine]: the IC50 in test [1] (low cell density, 3 pt) is greater than 10 µM; in test [2] (setting [14]), less than 10 µM; in test [2] (setting [15]) it was less than 10 µM.
For the compound `CN1CCN(c2cccc(Nc3ncc(F)c(N[C@H]4CCN(Cc5ccccc5)C4)n3)c2)CC1` [Compound 1186], the IC50 in test [1] (setting [6]) is greater than 10 µM; in test [2] (setting [7]) it was less than 10 µM.
For the compound `CNC(=O)COc1cccc(Nc2ncc(F)c(Nc3ccc4c(c3)NC(=O)C(F)(F)O4)n2)c1` [Compound 1046, N4-(2,2-Difluoro-3-oxo-4H-benz[1,4]oxazin-6-yl)-5-fluoro-N2-[3-(N-methylamino)carbonylmethyleneoxyphenyl]-2,4-pyrimidinediamine Methanesulfonic Acid Salt], the IC50 in test [1] (low cell density CHMC, tryptase readout, 3 pt) was greater than 10 µM; in test [2] (low cell density CHMC, tryptase readout, 3 pt, read-out: LD Tryptase, CHMC, IgE, 3 pt), less than 10 µM; in test [2] (low cell density CHMC, tryptase readout, 8 pt, read-out: LD Tryptase, CHMC, IgE, 8 pt), less than 10 µM.
On to `CNC(=O)COc1ccc(Nc2nc(Nc3cc(OC)cc(OC)c3)ncc2F)cc1Cl` [Compound 601, N4-[3-Chloro-4-(N-methylamino)carbonylmethyleneoxyphenyl]-N2-(3,5-dimethoxylphenyl)-5-fluoro-2,4-pyrimidinediamine], for which the IC50 in test [1] (setting [8]) is greater than 10 µM; in test [2] (setting [9]), less than 10 µM; in test [2] (setting [10]) it was less than 10 µM.
As for `CNC(=O)c1ccc(Nc2ncc(F)c(Nc3cc(OC)cc(OC)c3)n2)cc1Cl` [Compound 465], the IC50 in test [1] (setting [18]) is greater than 10 µM; in test [2] (setting [19]), less than 10 µM.
For the compound `CC(=O)N1CCN(c2cccc(Nc3ncc(F)c(NC4CN(C(=O)OC(C)(C)C)C4)n3)c2)CC1` [Compound 1120, N2-[3-(4-Acetylpiperazino)phenyl]-N4-(1-tert-butoxycarbonylazetidin-3-yl)-5-fluoro-2,4-pyrimidinediamine], the IC50 in test [1] (setting [6]) and in test [2] (setting [7]) was greater than 10 µM in each case.
`CNC(=O)c1cc(Nc2ncc(F)c(N(C)c3cc(C)c(Cl)c(C)c3)n2)ccc1Cl` [Compound 610, N4-(4-Chloro-3,5-dimethylphenyl)-N2-[4-chloro-3-(N-methylamino)carbonylphenyl]-5-fluoro-N4-methyl-2,4-pyrimidinediamine]: the IC50 in test [1] (setting [11]) and in test [2] (setting [12]) was greater than 10 µM throughout.
Consider `COc1ccc(N(C)c2nc(Nc3cc(C)c(OC)c(Cl)c3)ncc2F)cc1Cl` [Compound 578, N2-(3-Chloro-4-methoxy-5-methylphenyl)-N4-(3-chloro-4-methoxyphenyl)-5-fluoro-N4-methyl-2,4-pyrimidinediamine], for which the IC50 is greater than 10 µM in test [1] (setting [11]) and less than 10 µM in test [2] (setting [12]).
As for `Cc1cc(C)cc(Nc2ncc(F)c(Nc3ccc(OCCO)c(Cl)c3)n2)c1` [Compound 619, N4-[3-Chloro-4-(2-hydroxyethyleneoxy)phenyl]-N2-(3,5-dimethylphenyl)-5-fluoro-2,4-pyrimidinediamine], the IC50 in test [1] (setting [8]), in test [2] (setting [9]) and in test [2] (setting [10]) was less than 10 µM in each case.
With `COc1c(C)cc(Nc2ncc(F)c(Nc3ccc4c(c3)OCCO4)n2)cc1C` [Compound 998], the IC50 was greater than 10 µM in test [1] (setting [18]), less than 10 µM in test [2] (setting [19]) and less than 10 µM in test [2] (setting [20]).
On to `Fc1cnc(Nc2cccc(-c3ncco3)c2)nc1Nc1ccc2c(n1)NCCO2` [Compound 1143, N4-(3,4-Dihydro-2H,4H-5-pyrid[1,4]oxazin-6-yl)-5-fluoro-N2-[3-(oxazol-2-yl)phenyl]-2,4-pyrimidinediamine], for which the IC50 is greater than 10 µM in test [1] (setting [16]); less than 10 µM in test [2] (setting [17]); less than 10 µM in test [2] (low cell density CHMC, tryptase, 8 pt, read-out: LD Tryptase, CHMC, IgE, 8 pt).
